Values of other authors in patent publication US20140275170A1, “TASTE MASKING OF ANESTHETICS AND ANALGESICS” (priority 2013, published 2014).

Conditions: maximum doses of 7 mg/kg (550 mg)

SMILES: Cc1cccc(C)c1NC(=O)C1CCCCN1C (stereo not shown) [mepivacaine]
- Adverse effect at maximum doses: without adverse effect
